The target of the experiment is Rho-associated protein kinase 2 (Homo sapiens, UniProt O75116). As to the kind of experiment: Biological Assay: The kinase IC50 was determined by a commercialized CISBIO kinase detection kit, HTRF KinEASE-STK S2 kit (62ST2PEC). ROCK2 (01-119) employed in the reaction was purchased from Carna Biosciences.Before the assay, the following working solutions as needed were formulated with corresponding reagents according to the instruction of the kinase detection kit: 1×kinase buffer, 5×STK-52 substrate working solution (1.5 μM) and 5×ATP working solution (1.5 μM), 5×ROCK2 kinase working solution, 4×Streptavidin-XL665 working solution, and 4×STK-Ab-Cryptate 2 detection solution. Then the assay was performed according to the following procedure.A solution of a compound at a concentration of 10000 nM was prepared with the 1×kinase buffer containing 2.5% DMSO. Gradient dilution of the solution of the compound was performed with the kinase buffer containing DMSO, so as to obtain solutions of a test compound at 9 different concentrations. In addition to wells of test compounds, a positive well (containing all the reagents except the compound) and a negative well (containing all the reagents except the test compound and kinase) were set. Except for the control wells (positive and negative wells), a solution of a test compound (4 μL) was added to each of the reaction wells, and a solution of 2.5% DMSO was added to the control wells. […]. On the technique in general: In TR-FRET formats the signal depends on donor and acceptor labels being close together.

Structures are written as SMILES.

Chain of Rho-associated protein kinase 2 (O75116 whole entry): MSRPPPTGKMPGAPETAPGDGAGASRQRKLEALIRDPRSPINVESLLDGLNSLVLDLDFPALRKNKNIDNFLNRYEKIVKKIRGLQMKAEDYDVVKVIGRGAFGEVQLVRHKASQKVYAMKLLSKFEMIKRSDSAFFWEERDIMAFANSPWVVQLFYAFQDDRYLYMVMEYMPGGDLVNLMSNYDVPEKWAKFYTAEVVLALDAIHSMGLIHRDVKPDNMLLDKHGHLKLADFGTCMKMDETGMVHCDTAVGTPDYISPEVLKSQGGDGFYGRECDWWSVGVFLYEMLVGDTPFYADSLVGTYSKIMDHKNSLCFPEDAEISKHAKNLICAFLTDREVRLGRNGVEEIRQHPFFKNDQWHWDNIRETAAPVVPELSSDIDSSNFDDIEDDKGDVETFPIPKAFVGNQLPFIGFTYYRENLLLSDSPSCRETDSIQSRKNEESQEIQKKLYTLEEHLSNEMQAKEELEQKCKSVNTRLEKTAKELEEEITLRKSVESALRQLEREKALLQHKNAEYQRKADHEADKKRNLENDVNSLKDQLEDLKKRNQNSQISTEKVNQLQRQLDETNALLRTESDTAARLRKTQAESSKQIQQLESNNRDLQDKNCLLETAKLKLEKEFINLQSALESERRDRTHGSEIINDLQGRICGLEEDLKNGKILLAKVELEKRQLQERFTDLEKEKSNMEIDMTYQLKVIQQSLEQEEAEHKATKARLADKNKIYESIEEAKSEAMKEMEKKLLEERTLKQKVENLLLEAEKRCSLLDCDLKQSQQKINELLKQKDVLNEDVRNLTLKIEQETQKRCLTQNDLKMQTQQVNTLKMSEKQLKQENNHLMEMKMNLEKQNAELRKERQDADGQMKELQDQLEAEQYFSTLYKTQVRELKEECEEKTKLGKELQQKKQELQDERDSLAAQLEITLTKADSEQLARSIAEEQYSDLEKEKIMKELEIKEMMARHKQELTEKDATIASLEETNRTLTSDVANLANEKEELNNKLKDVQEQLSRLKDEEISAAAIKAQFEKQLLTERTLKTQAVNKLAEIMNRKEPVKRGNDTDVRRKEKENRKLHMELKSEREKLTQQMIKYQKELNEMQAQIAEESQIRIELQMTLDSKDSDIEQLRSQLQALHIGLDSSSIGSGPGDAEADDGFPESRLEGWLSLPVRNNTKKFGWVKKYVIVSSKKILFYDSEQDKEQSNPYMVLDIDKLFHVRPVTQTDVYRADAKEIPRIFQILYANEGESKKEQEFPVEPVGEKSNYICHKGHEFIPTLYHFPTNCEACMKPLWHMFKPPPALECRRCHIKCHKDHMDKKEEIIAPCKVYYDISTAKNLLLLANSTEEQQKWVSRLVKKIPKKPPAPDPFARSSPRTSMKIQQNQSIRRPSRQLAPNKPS

As a reminder, the IC50 is the concentration needed to halve the response being measured. `O=C(Nc1ccc(-c2cn[nH]c2)cc1)c1cc2ccc(-c3nccc(Nc4ccc5[nH]ncc5c4)n3)cc2[nH]1` showed a half-inhibitory concentration (IC50) of 71 nM.

The values above are taken from ChEMBL document CHEMBL5727158, “Rho-associated protein kinase inhibitor, pharmaceutical composition comprising the same, as well as preparation method and use thereof” (2019).
